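Test compounds were applied to cells in 96-well plates for 48 hours at 5 doses. The concentration for 50% growth inhibition is given as GI50. TGI: total growth inhibition.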
Assays:
Assay in all cases: inhibition of tumour cell growth, NCI panel, 48 h
SK-OV-3 ovarian = test system: SK-OV-3 ovarian
SF-268 CNS = test system: SF-268 CNS
DU-145 prostate = test system: DU-145 prostate
MDA-MB-435 = test system: MDA-MB-435
SNB-75 CNS = test system: SNB-75 CNS
HOP-92 NSCLC = test system: HOP-92 NSCLC
NCI-H23 lung = test system: NCI-H23 lung
NCI-H226 lung = test system: NCI-H226 lung
CAKI-1 renal = test system: CAKI-1 renal
LOX IMVI melanoma = test system: LOX IMVI melanoma

SMILES	TGI (SK-OV-3 ovarian) [µM]	TGI (SF-268 CNS) [µM]	TGI (DU-145 prostate) [µM]	TGI (MDA-MB-435) [µM]	GI50 (SNB-75 CNS) [µM]	GI50 (HOP-92 NSCLC) [µM]	TGI (HOP-92 NSCLC) [µM]	TGI (NCI-H23 lung) [µM]	TGI (NCI-H226 lung) [µM]	TGI (CAKI-1 renal) [µM]	TGI (LOX IMVI melanoma) [µM]	GI50 (SK-OV-3 ovarian) [µM]	GI50 (SF-268 CNS) [µM]	GI50 (DU-145 prostate) [µM]	GI50 (MDA-MB-435) [µM]	TGI (SNB-75 CNS) [µM]	GI50 (NCI-H23 lung) [µM]	GI50 (NCI-H226 lung) [µM]	GI50 (CAKI-1 renal) [µM]	GI50 (LOX IMVI melanoma) [µM]
Nc1ccccc1C(=O)NC(=O)Nc1ccc(Oc2ncc(Br)cn2)c(Cl)c1	3.2	18.9	1.52	0.155	0.0035	0.303	6.66	4.86	1.49	1.72	24.1									
COc1ccc2nc3cccc([N+](=O)[O-])c3c(NCCNCCN(C)C)c2c1	1.06	0.715	0.909	0.248	0.158	0.0588	0.204	5.26	0.629	0.616	0.305	0.279	0.161	0.0374	0.111	0.386	1.72	0.219	0.0797	0.0652
Cc1nc(Sc2nc3ccc([N+](=O)[O-])cc3s2)sc1C	15.5	10.9	15.4	11.1	2.48	2.54	7.55	4.44	2.84	8.03	0.932	4.38	1.7	3.99	1.78	12.3	1.03	1.07	1.9	0.221
Cc1cccc(Nc2cc(Cl)nc(SCC(=O)O)n2)c1C	> 100		> 100	> 100			> 100	> 100	> 100	> 100	> 100					> 100				
COc1ccc2[nH]c(C(=O)OCc3ccc4cccc(O)c4n3)cc2c1	23.2	3.13	2.93	3.13	1.06	0.209	1.42	3.07	3.14	2.49	2.14	11.1	1.65	1.53	1.52	2.3	1.44	1.4	1.13	0.779
Nc1ccc(-c2ccc3ncc4ccc(=O)n(-c5cccc(C(F)(F)F)c5)c4c3c2)cn1	0.0222	4.61	30.8	3.26	< 0.01	< 0.01	< 0.0226	2.35	4.7	1.55	0.481	< 0.01	< 0.0104	< 0.01	< 0.01	0.0227	< 0.013	< 0.01	< 0.01	< 0.01
COc1ccc2c(c1)O/C(=C\c1cccc(OCC(=O)Nc3nc(C)c(C)s3)c1)C2=O	> 75.3	1.4	0.404	> 100	0.862	1.32	3.09		> 100		0.351	25.2	0.638	0.189	7.29	6.51	1.19	> 53	1.06	0.189
CCN(CC)c1nc(NC2CCCCC2)c2nc(N(CC)CC)nc(NC3CCCCC3)c2n1	> 100	> 100	> 100	> 100			> 100	> 100	> 100											
COc1cc(-c2nccc3cc4c(cc23)OCO4)cc(OC)c1OC	> 100	> 100	> 100	3.55	2.45	11.5	> 100	> 100	> 100	10.5	> 100	4.48	5.56	3.87	0.411	79.7	4.73	16.4	2.52	6.06
NCCOc1ncccc1/C=C1\c2ccccc2-c2ccc([N+](=O)[O-])cc21	0.309	0.619	0.224	0.362	0.0488	0.0234	0.477	0.413	0.366	0.231	0.163	0.0489	0.0827	0.0193	0.161	0.437	0.0479	0.11	0.0283	0.0243
Cn1cncc1-c1c(F)cncc1NC(=O)c1c(N)nn2cc(F)cnc12	8.92	46.2	49.3	> 100	6.5	4.43	69.4	1.34		21.7	10.4	0.743	4.04	0.803	0.933	48.6	0.093		1.45	0.238
Nc1nc2c(ccc3ccccc32)s1		> 100	> 100	> 100	36.8	19.3	85.2	> 100	> 100	67.5	> 100		33.2	> 100	57.1	> 100	> 100	> 100	26.7	78.2
Cc1cn2c(/C=N/N=C(N)N)c(-c3ccncc3)nc2s1		30.7	31.2	33.8		13.4	26.9	30.2	40.5	> 100	28.1		16.7	16.4	17.2		16.6	21.8	> 100	14.9
CC(C)(C)c1nc(-c2cccc(NS(=O)(=O)c3c(F)cccc3F)c2F)c(-c2ccnc(N)n2)s1		> 100	> 100	> 100		35.5	> 100	98.6	> 100		> 100		51	58.5	< 0.01		10.3	32.9		0.233

From PubChem BioAssay (NCI)
